According to PMC4922798 (Journal of the American Chemical Society, 2015):

Biological target: CazM (Chaetomium globosum, UniProt A0A0K0MCJ4)
Assay: HPLC / LC-MS product analysis
Format: biochemical
Settings: 2 mM 11-SNAC, malonyl-CoA, SAM; pH 7.4, room temperature, 8 h; reductive release

Chain of CazM (A0A0K0MCJ4 whole entry): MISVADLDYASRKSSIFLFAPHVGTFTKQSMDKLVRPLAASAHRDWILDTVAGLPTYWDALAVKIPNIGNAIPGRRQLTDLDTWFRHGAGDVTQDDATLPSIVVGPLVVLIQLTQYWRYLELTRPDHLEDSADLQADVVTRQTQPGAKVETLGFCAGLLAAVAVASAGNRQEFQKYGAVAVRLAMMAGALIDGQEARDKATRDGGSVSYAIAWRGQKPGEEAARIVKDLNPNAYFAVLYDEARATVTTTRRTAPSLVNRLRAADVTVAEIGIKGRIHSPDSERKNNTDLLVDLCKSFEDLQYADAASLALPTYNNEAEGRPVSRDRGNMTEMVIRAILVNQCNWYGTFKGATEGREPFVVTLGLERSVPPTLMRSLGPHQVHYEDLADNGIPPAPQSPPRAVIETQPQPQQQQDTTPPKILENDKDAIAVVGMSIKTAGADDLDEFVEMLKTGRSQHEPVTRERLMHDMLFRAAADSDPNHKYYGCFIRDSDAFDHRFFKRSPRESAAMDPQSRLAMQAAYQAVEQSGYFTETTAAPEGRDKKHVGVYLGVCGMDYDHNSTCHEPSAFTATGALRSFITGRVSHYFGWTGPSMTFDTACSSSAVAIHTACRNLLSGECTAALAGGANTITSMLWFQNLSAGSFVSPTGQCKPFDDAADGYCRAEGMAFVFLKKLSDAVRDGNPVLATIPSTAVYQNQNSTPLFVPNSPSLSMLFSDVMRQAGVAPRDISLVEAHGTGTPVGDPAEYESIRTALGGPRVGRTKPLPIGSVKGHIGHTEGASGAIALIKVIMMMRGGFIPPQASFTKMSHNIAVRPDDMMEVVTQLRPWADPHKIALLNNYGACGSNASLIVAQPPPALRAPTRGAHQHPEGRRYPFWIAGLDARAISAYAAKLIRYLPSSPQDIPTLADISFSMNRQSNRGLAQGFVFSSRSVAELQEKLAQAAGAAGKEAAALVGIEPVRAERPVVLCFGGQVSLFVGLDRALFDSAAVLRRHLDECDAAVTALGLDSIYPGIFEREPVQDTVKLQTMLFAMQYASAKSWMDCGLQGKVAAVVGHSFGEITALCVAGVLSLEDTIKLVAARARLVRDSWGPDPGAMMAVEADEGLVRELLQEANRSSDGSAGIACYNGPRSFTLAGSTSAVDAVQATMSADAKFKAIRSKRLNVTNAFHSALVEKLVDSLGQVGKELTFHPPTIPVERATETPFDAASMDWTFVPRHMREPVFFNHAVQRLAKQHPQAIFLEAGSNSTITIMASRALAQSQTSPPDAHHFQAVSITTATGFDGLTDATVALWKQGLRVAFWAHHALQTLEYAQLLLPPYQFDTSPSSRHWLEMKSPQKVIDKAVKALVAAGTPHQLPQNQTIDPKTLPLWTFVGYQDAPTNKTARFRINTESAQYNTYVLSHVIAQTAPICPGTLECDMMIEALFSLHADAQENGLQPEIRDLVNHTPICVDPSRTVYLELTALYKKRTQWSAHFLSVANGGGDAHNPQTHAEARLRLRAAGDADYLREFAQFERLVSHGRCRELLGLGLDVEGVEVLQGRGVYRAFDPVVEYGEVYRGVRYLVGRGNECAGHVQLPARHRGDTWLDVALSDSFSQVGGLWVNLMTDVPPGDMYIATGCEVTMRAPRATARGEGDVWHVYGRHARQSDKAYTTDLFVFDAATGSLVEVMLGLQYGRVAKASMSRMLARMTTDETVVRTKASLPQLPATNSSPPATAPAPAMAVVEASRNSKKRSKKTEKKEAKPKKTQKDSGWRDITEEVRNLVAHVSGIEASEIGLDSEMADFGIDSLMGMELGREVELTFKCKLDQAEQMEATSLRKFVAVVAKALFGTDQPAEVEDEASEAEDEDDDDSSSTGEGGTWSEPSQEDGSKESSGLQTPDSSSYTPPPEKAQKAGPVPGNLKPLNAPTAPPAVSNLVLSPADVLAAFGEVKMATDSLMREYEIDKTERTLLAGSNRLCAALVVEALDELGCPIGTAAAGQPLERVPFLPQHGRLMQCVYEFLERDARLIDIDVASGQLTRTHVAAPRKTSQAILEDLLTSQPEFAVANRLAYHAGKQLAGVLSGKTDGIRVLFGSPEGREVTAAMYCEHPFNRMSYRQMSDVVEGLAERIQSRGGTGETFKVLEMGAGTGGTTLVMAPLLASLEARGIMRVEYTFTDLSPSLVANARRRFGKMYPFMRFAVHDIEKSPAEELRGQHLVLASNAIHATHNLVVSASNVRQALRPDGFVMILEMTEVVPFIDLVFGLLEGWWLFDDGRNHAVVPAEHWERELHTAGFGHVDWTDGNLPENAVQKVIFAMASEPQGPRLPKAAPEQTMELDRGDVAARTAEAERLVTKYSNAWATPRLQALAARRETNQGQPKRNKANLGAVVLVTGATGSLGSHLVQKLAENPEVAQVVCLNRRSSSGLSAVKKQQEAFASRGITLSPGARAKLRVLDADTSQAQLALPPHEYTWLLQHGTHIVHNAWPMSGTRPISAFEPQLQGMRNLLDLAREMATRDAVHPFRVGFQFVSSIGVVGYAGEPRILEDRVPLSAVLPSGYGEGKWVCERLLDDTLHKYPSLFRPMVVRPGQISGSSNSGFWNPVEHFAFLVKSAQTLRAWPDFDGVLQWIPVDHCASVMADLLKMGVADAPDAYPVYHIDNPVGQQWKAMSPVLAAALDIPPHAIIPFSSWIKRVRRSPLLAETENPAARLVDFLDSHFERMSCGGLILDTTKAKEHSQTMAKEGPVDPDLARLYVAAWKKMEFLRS

`NC(=O)C1=CN([C@@H]2O[C@H](COP(=O)(O)OP(=O)(O)OC[C@H]3O[C@@H](n4cnc5c(N)ncnc54)[C@H](OP(=O)(O)O)[C@@H]3O)[C@@H](O)[C@H]2O)C=CC1` [NADPH] was tested, and the “HPLC / LC-MS product analysis” value was “CazM requires NADPH for the reductive offloading of its polyketide product”.
